# Reference: ChEMBL document CHEMBL2086270, “Rational Design, Synthesis, and SAR of a Novel Thiazolopyrimidinone Series of Selective PI3K-beta Inhibitors” (ACS Med Chem Lett, 2012)
# What was measured:
# [1] = target: Phosphatidylinositol 4,5-bisphosphate 3-kinase catalytic subunit alpha isoform (Homo sapiens, UniProt P42336); experiment: Inhibition of PI3K alpha by continuous TR-FRET assay
# [2] = target: T1, Phosphatidylinositol 4,5-bisphosphate 3-kinase catalytic subunit beta isoform (Homo sapiens, UniProt P42338); experiment: Inhibition of PI3K beta by continuous TR-FRET assay
# T1 sequence (P42338 whole entry, canonical isoform): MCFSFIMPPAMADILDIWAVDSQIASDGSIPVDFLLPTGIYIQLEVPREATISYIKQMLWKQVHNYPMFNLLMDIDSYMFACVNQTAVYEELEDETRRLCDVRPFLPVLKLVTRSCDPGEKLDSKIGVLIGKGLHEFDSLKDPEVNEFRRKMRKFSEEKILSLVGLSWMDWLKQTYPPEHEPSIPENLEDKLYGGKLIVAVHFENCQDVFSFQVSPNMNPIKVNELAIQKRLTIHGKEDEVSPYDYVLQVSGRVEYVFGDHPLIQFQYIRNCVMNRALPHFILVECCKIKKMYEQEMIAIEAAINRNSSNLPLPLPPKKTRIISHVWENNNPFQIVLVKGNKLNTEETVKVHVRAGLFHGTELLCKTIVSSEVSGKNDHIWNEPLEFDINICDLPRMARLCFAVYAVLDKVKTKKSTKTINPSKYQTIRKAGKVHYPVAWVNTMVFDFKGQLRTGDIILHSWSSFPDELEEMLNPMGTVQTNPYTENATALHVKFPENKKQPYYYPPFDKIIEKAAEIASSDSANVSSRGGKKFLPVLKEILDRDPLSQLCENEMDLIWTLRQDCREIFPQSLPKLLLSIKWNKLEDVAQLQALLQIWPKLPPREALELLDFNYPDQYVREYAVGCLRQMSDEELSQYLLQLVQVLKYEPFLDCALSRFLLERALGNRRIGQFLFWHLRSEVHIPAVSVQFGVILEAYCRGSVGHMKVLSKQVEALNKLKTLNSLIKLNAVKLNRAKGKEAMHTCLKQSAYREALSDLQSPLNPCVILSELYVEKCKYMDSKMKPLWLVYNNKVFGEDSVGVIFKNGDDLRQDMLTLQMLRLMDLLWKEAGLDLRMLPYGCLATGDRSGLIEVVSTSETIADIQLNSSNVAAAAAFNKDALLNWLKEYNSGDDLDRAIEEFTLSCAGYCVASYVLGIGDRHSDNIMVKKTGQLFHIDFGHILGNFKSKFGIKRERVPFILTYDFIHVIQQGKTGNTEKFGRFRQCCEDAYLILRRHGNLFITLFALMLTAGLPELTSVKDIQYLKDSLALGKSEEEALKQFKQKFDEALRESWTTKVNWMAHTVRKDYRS
# [3] = target: T2, Phosphatidylinositol 4,5-bisphosphate 3-kinase catalytic subunit delta isoform (Homo sapiens, UniProt O00329); experiment: Inhibition of PI3K delta by continuous TR-FRET assay
# T2 sequence (O00329 whole entry): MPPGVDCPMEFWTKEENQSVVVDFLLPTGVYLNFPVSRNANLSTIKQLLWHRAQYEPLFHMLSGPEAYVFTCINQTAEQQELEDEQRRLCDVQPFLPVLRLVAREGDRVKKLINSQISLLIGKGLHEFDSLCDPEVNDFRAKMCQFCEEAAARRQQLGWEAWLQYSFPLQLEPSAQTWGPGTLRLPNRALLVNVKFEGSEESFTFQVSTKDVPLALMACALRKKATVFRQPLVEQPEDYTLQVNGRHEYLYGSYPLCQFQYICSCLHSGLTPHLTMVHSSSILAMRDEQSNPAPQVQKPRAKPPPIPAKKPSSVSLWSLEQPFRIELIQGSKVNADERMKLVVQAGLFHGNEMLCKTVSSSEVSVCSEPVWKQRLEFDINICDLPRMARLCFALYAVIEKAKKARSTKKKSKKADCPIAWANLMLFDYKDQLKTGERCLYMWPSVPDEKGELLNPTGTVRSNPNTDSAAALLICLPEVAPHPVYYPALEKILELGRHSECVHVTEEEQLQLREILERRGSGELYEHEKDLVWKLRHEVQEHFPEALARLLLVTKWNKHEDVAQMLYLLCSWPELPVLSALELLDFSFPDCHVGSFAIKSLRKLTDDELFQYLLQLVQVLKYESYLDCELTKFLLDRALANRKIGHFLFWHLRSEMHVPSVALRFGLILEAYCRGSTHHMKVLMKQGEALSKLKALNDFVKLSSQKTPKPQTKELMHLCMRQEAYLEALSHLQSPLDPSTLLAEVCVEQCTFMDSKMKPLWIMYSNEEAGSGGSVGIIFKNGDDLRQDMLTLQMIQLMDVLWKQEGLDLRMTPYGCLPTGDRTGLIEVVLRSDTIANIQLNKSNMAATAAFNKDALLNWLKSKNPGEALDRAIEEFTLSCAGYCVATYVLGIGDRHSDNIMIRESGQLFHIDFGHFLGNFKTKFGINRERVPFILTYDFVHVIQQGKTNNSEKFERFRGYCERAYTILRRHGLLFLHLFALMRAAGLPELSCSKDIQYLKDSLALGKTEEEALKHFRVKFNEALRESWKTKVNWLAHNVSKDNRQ
# [4] = target: Phosphatidylinositol 4,5-bisphosphate 3-kinase catalytic subunit gamma isoform (Homo sapiens, UniProt P48736); experiment: Inhibition of PI3K gamma by continuous TR-FRET assay
# Phosphatidylinositol 4,5-bisphosphate 3-kinase catalytic subunit gamma isoform, sequence (P48736 whole entry, canonical isoform): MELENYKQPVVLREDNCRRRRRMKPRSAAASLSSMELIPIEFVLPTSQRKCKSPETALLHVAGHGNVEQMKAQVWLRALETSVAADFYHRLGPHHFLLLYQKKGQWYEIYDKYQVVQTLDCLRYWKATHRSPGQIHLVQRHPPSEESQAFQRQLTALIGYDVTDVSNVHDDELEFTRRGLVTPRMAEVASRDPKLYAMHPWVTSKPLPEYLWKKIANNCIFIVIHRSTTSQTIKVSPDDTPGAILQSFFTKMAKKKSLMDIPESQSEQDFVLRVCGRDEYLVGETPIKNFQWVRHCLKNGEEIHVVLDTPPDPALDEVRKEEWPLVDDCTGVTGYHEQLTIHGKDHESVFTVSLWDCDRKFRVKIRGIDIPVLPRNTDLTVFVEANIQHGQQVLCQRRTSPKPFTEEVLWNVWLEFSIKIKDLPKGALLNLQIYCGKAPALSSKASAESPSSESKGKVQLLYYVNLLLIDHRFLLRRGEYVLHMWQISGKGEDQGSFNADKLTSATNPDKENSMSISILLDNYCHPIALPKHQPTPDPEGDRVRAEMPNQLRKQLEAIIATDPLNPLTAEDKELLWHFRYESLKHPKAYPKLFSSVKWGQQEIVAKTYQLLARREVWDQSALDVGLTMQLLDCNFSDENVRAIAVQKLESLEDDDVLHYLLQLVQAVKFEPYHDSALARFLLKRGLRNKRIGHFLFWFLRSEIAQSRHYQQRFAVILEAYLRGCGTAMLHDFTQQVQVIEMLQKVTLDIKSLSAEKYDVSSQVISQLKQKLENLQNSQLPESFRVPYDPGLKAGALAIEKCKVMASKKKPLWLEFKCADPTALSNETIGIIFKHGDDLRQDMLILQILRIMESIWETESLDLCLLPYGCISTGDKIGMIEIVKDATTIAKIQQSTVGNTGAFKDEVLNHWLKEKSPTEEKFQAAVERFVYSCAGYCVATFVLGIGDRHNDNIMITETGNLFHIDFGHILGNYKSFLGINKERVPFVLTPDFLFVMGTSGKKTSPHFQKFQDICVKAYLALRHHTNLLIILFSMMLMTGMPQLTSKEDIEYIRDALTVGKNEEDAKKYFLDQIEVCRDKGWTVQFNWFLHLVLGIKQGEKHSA
# [5] = target: T1, Phosphatidylinositol 4,5-bisphosphate 3-kinase catalytic subunit beta isoform; experiment: Inhibition of PI3K beta in human PTEN-deficient MDA-MB-468 cells assessed as inhibition of Akt Ser473 phosphorylation; format: cell-based
# MDA-MB-468 = experiment: Antiproliferative activity against PTEN-deficient human MDA-MB-468 cells; format: functional
# [6] = Half life in CD mouse at 0.3 mg/kg, iv; format: ADME, organism-based; design: dose 0.3 mg/kg, route intravenous; details: in vivo
# [7] = Volume of distribution at steady state in CD mouse at 0.3 mg/kg, iv; format: ADME, organism-based; design: dose 0.3 mg/kg, route intravenous; details: in vivo, read-out: Vdss
# [8] = Clearance in CD mouse at 0.3 mg/kg, iv; format: ADME, organism-based; design: dose 0.3 mg/kg, route intravenous; details: in vivo
# Mus musculus = experiment: Dose normalized AUC in CD mouse at 100 mg/kg, po; format: ADME, organism-based; design: dose 100 mg/kg, route oral; details: in vivo
# [9] = Oral bioavailability in CD mouse at 100 mg/kg; format: ADME, organism-based; details: in vivo
# Phosphatidylinositol 4,5-bisphosphate 3-kinase catalytic subunit alpha isoform, sequence (P42336 whole entry, canonical isoform): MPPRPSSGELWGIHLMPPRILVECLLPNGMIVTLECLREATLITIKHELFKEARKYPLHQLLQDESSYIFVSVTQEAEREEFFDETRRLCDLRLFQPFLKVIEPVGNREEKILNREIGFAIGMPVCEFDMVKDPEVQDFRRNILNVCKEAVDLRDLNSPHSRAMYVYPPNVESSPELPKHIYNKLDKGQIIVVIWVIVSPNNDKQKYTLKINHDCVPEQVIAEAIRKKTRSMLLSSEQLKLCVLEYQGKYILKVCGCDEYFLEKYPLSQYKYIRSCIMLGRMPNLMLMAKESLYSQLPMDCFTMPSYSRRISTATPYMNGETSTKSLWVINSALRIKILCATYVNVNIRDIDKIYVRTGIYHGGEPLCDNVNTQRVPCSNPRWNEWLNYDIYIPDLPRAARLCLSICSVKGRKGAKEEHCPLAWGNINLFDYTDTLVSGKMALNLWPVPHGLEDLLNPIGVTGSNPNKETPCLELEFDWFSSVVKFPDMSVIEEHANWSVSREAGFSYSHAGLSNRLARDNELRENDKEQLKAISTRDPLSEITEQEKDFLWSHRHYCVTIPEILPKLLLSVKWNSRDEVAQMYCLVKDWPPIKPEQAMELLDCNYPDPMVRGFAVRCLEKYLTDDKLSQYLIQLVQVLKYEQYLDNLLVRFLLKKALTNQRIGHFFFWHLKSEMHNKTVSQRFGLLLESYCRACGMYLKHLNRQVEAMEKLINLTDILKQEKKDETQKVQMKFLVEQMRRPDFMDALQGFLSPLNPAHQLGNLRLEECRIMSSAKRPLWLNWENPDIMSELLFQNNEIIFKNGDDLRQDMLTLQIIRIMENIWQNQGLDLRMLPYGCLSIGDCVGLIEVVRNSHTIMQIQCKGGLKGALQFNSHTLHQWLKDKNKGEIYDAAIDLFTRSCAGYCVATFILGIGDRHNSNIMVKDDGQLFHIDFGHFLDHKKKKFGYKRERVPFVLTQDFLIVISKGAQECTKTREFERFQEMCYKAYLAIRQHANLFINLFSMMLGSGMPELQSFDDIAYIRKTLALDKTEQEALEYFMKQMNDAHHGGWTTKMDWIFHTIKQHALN
Compound,IC50 [1],IC50 [2],IC50 [3],IC50 [4],EC50 [5],GI50 (MDA-MB-468),half-life [6],Vd [7],clearance [8],AUC/dose (Mus musculus),bioavailability [9]
Cc1c(Cn2cnc(=O)c3sc(N4CCOCC4)nc32)cccc1C(F)(F)F,4000 nM,3 nM,63 nM,1600 nM,,,,,,,
O=c1ncn(Cc2cccc(Cl)c2)c2nc(N3CCOCC3)sc12,> 3200 nM,79 nM,320 nM,> 790 nM,,,,,,,
CCc1nc(=O)c2sc(N3CCOCC3)nc2n1Cc1cccc(C(F)(F)F)c1C,> 4000 nM,0.5 nM,13 nM,1300 nM,16 nM,23 nM,,,,,
Cc1c(Cn2c(-c3ccccc3)nc(=O)c3sc(N4CCOCC4)nc32)cccc1C(F)(F)F,> 3200 nM,50 nM,500 nM,4000 nM,,,,,,,
O=c1ncn(Cc2ccsc2Cl)c2nc(N3CCOCC3)sc12,3200 nM,790 nM,2500 nM,4000 nM,,,,,,,
O=c1ncn(CCc2ccccc2)c2nc(N3CCOCC3)sc12,> 2000 nM,790 nM,1000 nM,3200 nM,,,,,,,
O=c1ncn(Cc2ccccc2Cl)c2nc(N3CCOCC3)sc12,2500 nM,160 nM,> 790 nM,7900 nM,,,,,,,
Cc1c(Cn2c(CN)nc(=O)c3sc(N4CCOCC4)nc32)cccc1C(F)(F)F,> 2500 nM,3 nM,160 nM,> 7900 nM,,,,,,,
Cc1c(Cn2c(Cc3ccccc3)nc(=O)c3sc(N4CCOCC4)nc32)cccc1C(F)(F)F,2500 nM,3 nM,63 nM,2000 nM,,,,,,,
CC(c1ccccc1)n1cnc(=O)c2sc(N3CCOCC3)nc21 (stereo not drawn),> 4000 nM,400 nM,500 nM,5000 nM,,,,,,,
Cc1c(Cl)cccc1Cn1c(=O)[nH]c(=O)c2sc(N3CCOCC3)nc21,50000 nM,8 nM,500 nM,> 6300 nM,,,,,,,
O=c1ncn(Cc2ccccc2)c2nc(N3CCOCC3)sc12,7900 nM,320 nM,2000 nM,6300 nM,,,,,,,
Cc1c(Cl)cccc1Cn1cnc(=O)c2sc(N3CCOCC3)nc21,2500 nM,3 nM,40 nM,2500 nM,,,,,,,

# More lines, in order of falling IC50 [1], values ahead:
IC50 [1],IC50 [2],IC50 [3],IC50 [4],EC50 [5],GI50 (MDA-MB-468),half-life [6],Vd [7],clearance [8],AUC/dose (Mus musculus),bioavailability [9],Compound
2500 nM,25 nM,250 nM,2500 nM,,,,,,,,Cc1ccccc1Cn1cnc(=O)c2sc(N3CCOCC3)nc21
2000 nM,0.5 nM,10 nM,1000 nM,19 nM,32 nM,,,,,,Cc1c(Cl)cccc1Cn1c(C)nc(=O)c2sc(N3CCOCC3)nc21
2000 nM,5 nM,50 nM,> 3200 nM,,,,,,,,Cc1c(Cl)cccc1Cn1c(=S)[nH]c(=O)c2sc(N3CCOCC3)nc21
2000 nM,0.3 nM,10 nM,2500 nM,,,,,,,,CSc1nc(=O)c2sc(N3CCOCC3)nc2n1Cc1cccc(Cl)c1C
1600 nM,0.3 nM,10 nM,400 nM,6 nM,21 nM,,,,,,COc1nc(=O)c2sc(N3CCOCC3)nc2n1Cc1cccc(Cl)c1C
1300 nM,0.5 nM,16 nM,1000 nM,9 nM,43 nM,0.75 h,2.6 L/kg,48.6 mL/min/kg,192 ng/(hr.mL.mg.kg),54%,Cc1c(Cn2c(C3CC3)nc(=O)c3sc(N4CCOCC4)nc32)cccc1C(F)(F)F
1000 nM,10 nM,79 nM,1300 nM,,,,,,,,O=c1ncn(Cc2cccc(Cl)c2Cl)c2nc(N3CCOCC3)sc12
630 nM,0.2 nM,3 nM,250 nM,,,,,,,,Cc1c(Cn2c(CO)nc(=O)c3sc(N4CCOCC4)nc32)cccc1C(F)(F)F
500 nM,0.1 nM,2 nM,250 nM,6 nM,8 nM,1.9 h,3.35 L/kg,29.4 mL/min/kg,264 ng/(hr.mL.mg.kg),21%,Cc1c(Cl)cccc1Cn1c(CO)nc(=O)c2sc(N3CCOCC3)nc21
400 nM,0.05 nM,2 nM,160 nM,,,,,,,,Cc1c(Cl)cccc1Cn1c(SCC(=O)O)nc(=O)c2sc(N3CCOCC3)nc21
250 nM,0.2 nM,3 nM,500 nM,3 nM,26 nM,,,,,,Cc1c(Cl)cccc1Cn1c(N)nc(=O)c2sc(N3CCOCC3)nc21
